A short description of experiment [1]: Inhibition of Flaveria bidentis beta-carbonic anhydrase-1 preincubated for 15 mins by stopped flow CO2 hydration assay.
A short description of experiment [2]: Inhibition of Helicobacter pylori beta-carbonic anhydrase preincubated for 15 mins by stopped flow CO2 hydration assay.

Structures are written as SMILES.

For orientation: Ki means a dissociation constant, usually derived from enzyme kinetics or from competition with a known ligand. A higher Ki goes with lower affinity.

Turning to `S=C(S)S` [SODIUM CARBONOTRITHIOATE], the Ki in experiment [1] was 60 µM; in experiment [2], 210 µM.

As for `[F-].[Na+]` [SODIUM FLUORIDE], the Ki in experiment [1] was 710 µM; in experiment [2], 670 µM.

For the molecule `[N-]=[N+]=[N-]` [SODIUM AZIDE], the values for the Ki in experiment [1] and in experiment [2] were 460 µM and 800 µM, respectively.

Take `N=C=[Se]` [SODIUM ISOSELENOCYANATE]: the inhibition constant Ki in experiment [1] turned out to be 880 µM; in experiment [2] it was 970 µM.

In experiment [1], `O=C([O-])O.[Na+]` [SODIUM BICARBONATE] came in with a Ki of 660 µM.

`[I-].[Na+]` [SODIUM IODIDE]: the values for the Ki in experiment [1] and in experiment [2] were 710 µM and 630 µM, respectively.

Turning to `O=[N+]([O-])[O-].[Na+]` [SODIUM NITRATE], the Ki in experiment [1] and in experiment [2] was 780 µM each time.

As to `O=NO` [SODIUM NITRITE], the Ki in experiment [1] was found to be 570 µM; in experiment [2] it was 670 µM.

Turning to `O=[Te](=O)(O)O` [SODIUM TELLURATE], the Ki in experiment [1] was 900 µM; in experiment [2], 450 µM.

As for `NS(=O)(=O)O` [SULFAMATE], the Ki worked out at 5 µM in experiment [1] and 94 µM in experiment [2].

`S` [SODIUM HYDROSULFIDE]: the Ki was 860 µM in experiment [1] and 580 µM in experiment [2].

For `N=C=S` [SODIUM ISOTHIOCYANATE], the Ki worked out at 830 µM in experiment [1] and 680 µM in experiment [2].

Regarding `[O-][Cl+3]([O-])([O-])O` [SODIUM PERCHLORATE], the inhibition constant Ki was above 200000 µM in experiment [1] and 6500 µM in experiment [2].

As to `O=S(=O)([O-])[O-].[Na+].[Na+]` [SODIUM SULFATE ANHYDROUS], the results for the inhibitory constant (Ki) in experiment [1] and in experiment [2] were 620 µM and 570 µM, respectively.

Take `O=S(=O)(O)OOS(=O)(=O)O` [SODIUM PERSULFATE]: the Ki in experiment [1] amounted to 870 µM; in experiment [2], 930 µM.

With `O=[As](O)(O)c1ccccc1` [PHENYLARSONIC ACID], the inhibition constant Ki in experiment [1] stood at 6 µM. In other words, the single-digit micromolar range.

`CC(=O)Nc1nnc(S(N)(=O)=O)s1` [ACETAZOLAMIDE] yielded a Ki in experiment [1] of […].

Regarding `O=P(O)(O)OP(=O)(O)O` [SODIUM PYROPHOSPHATE], the Ki in experiment [1] came to 830 µM; in experiment [2], 750 µM.

On to `NS(N)(=O)=O` [SULFAMIDE], for which the Ki came to 4 µM in experiment [1] and 72 µM in experiment [2].

On to `F[B-](F)(F)F.[Na+]` [SODIUM TETRAFLUOROBORATE], for which the Ki in experiment [1] and in experiment [2] was above 200000 µM throughout.

As for `O=S([O-])O.[Na+]` [SODIUM BISULFITE], the Ki in experiment [1] stood at 55300 µM; in experiment [2], 630 µM.

For the molecule `O=C([O-])[O-].[Na+].[Na+]` [SODIUM CARBONATE], the Ki in experiment [1] came to 840 µM; in experiment [2], 420 µM.

On to `CCN(CC)C(=S)S` [DITIOCARB SODIUM], for which the Ki in experiment [1] was 8 µM; in experiment [2], 7.4 µM.

Consider `O=BOB(O)OB(O)OB=O` [SODIUM TETRABORATE], for which the Ki in experiment [1] stood at 860 µM; in experiment [2] it was 680 µM.

For the molecule `[Cl-].[Na+]` [SODIUM CHLORIDE], the inhibition constant Ki in experiment [1] is 740 µM; in experiment [2], 560 µM.

On to `O=[Se](=O)(O)O` [SODIUM SELENATE], for which the Ki in experiment [1] is 24500 µM; in experiment [2] it was 650 µM.

Consider `O=S(=O)(O)ONOS(=O)(=O)O` [SODIUM IMINODISULFATE], for which the values for the Ki in experiment [1] and in experiment [2] were 50900 µM and 700 µM, respectively.

For `OB(O)c1ccccc1` [PHENYLBORONIC ACID], the Ki in experiment [1] was determined as 8 µM; in experiment [2], 73 µM.

For the molecule `[Br-].[Na+]` [SODIUM BROMIDE], the results for the inhibition constant Ki in experiment [1] and in experiment [2] were 670 µM and 380 µM, respectively.

These data come from ChEMBL document CHEMBL2331417, “Kinetic and anion inhibition studies of a β-carbonic anhydrase (FbiCA 1) from the C4 plant Flaveria bidentis” (Bioorg Med Chem Lett, 2013).
